In PMC5597684, “Prediction and in vitro verification of potential CTL epitopes conserved among PRRSV-2 strains” (Immunogenetics, 2017):
Ends that are not written are not given here.

What follows are sequences tested against T1, SLA-1*04:01 (Sus scrofa, UniProt O19244) (assay: pSLA complex stability, scintillation proximity assay (125I-β2m dissociation)). Conditions: SPA, 125I-β2m dissociation at 37 °C over 24 h with 200 nM unlabeled β2m, refolded overnight 18 °C with ≈50 μM peptide, average of duplicates, t½ in decimal hours.
Assay type: binding, swine
Experimental: (§1) Five SLA class I alleles were used: SLA-1*04:01, SLA-1*07:02, SLA-2*04:01, SLA-2*05:02 and SLA-3*04:01.
(§2) Based on the bioinformatics described above, 53 peptides (purity >85%, GenScript) were acquired for in vitro verification.
(§3) The stability of the pSLA complexes was determined in vitro using a scintillation proximity assay (SPA) employing the principle of ^125I-radiolabeled β2m dissociation as a measure of pSLA complex stability (Harndahl et al. [2011]; Parker et al. [1992b]). Briefly, denatured biotinylated recombinant SLA heavy chains were diluted in PBS/0.1% Lutrol F68 to 50 nM and refolded overnight at 18 °C with 2–10 nM ^125I-radiolabeled β2m and ≈50 μM of the peptide to be tested in streptavidin-coated scintillation 384-well FlashPlate PLUS microplates (SMP410A001PK, PerkinElmer). In case of a binding peptide, a scintillation signal was observed and the off-rate was subsequently determined by increasing the temperature to 37 °C and the addition of an excess of unlabeled β2m (final concentration 200 nM) while continuously monitoring the scintillation signal in a liquid microplate scintillation plate reader (Topcount NXT, PerkinElmer) for 24 h at 37 °C. The off-rate is equivalent to the peptide-specific dissociation rate and serves as a good measure for pSLA complex stability. The stability values reported are the averages of duplicates in half-life (t½) decimal hours.

Row | Sequence | Stab. (h), measured stability (average dissociation half-life)
1 | KSGHPHGLLF [ID6] | 0.1 h
2 | RSTPAIVRWF [ID3] | 0.1 h

These sequences were tested on SLA-1*07:02 in the same assay as above. Conditions: SPA, 125I-β2m dissociation at 37 °C over 24 h with 200 nM unlabeled β2m, refolded overnight 18 °C with ≈50 μM peptide, average of duplicates, t½ in decimal hours.
Assay type: binding, swine
Experimental: as §1, §2, §3

Row | Sequence | Stab. (h), measured stability (average dissociation half-life)
3 | TLSNYRRSY [ID15] | 0.3 h

Each sequence was assayed against T2, SLA-2*04:01 (Sus scrofa, UniProt Q8MHU4) in the same assay as above. Conditions: SPA, 125I-β2m dissociation at 37 °C over 24 h with 200 nM unlabeled β2m, refolded overnight 18 °C with ≈50 μM peptide, average of duplicates, t½ in decimal hours.
Assay type: binding, swine
Experimental: as §1, §2, §3

Row | Sequence | Stab. (h), measured stability (average dissociation half-life)
4 | SSAFFLRYF [ID45] | 0.1 h

The sequences below were run against T1, SLA-1*04:01 (assay: pSLA binding affinity, modified ELISA). Conditions: ELISA as above, only one successful affinity measurement, read-out: Aff. (nM), measured affinity (equilibrium dissociation constant).
Design: species or system swine
Experimental: as §1, §2
(§4) Binding affinity of pSLA complexes was determined in vitro using a modified enzyme-linked immunosorbent assay (ELISA) (Sylvester-Hvid et al. [2002]; Pedersen et al. [2011]). Briefly, 1–2 nM denatured biotinylated recombinant SLA heavy chains were refolded with 15 nM human β2m (hβ2m) and eight fivefold incremental concentrations of the peptide to be tested spanning from 0 to 13 μM. Following obtained equilibrium after two nights of incubation at RT, the samples were transferred to a streptavidin coated 96-well capture plate (436014, Thermo Scientific) for 1½ h of incubation. Mouse-anti-hβ2m, BBM1, and horseradish peroxidase-conjugated goat-anti-mouse IgG (A9917, Sigma-Aldrich) were used as primary and secondary detection antibodies, respectively. Washing steps were performed with 0.05% Tween 20 in PBS. The color reaction of TMB Plus2 (4395A, Kem-En-Tec Diagnostics) was stopped with equivalent amounts of H2SO4 (0.5 M, cat 30144.294, VWR International), and the plates were read at 450–650 nm using a Multiskan EX ELISA reader (Thermo). OD values were converted to measures of affinity (equilibrium dissociation constant, K D) using the prefolded biotinylated […]/HLA-A*02:01 as standard (Kast et al. [1994]), and were again converted to percentile rank scores by the same SLA-specific standard curves that are integrated in NetMHCpan. A minimum of two reliable measurements were aspired for each pSLA combination, and in most cases this was obtained. The results are presented as the range between the minimum and maximum measurements converted to rank scores.

Row | Sequence | Kd
5 | ALATAPDGTY [ID46] | 607 nM
6 | FTWYQLASY [ID13] | 92 nM
7 | LSASSQTEY [ID38] | 91 nM
8 | MVNTTRVTY [ID29] | 206 nM
9 | RTILGTNNF [ID1] | 1030 nM
10 | YSFPGPPFF [ID4] | 37 nM

Same assay, conditions: ELISA, 1–2 nM heavy chain, 15 nM hβ2m, peptide 0 to 13 μM, two nights at RT, average of successful measurements, read-out: Aff. (nM), measured affinity (average equilibrium dissociation constant)

Row | Sequence | Kd
11 | ASDWFAPRY [ID25] | 2 nM
12 | KVAHNLGFY [ID21] | 4 nM
13 | KVAHNLGFYF [ID10] | 122 nM
14 | LSDSGRISY [ID19] | 10 nM
15 | NISAVFQTYY [ID23] | 413 nM
16 | QVYERGCRWY [ID7] | 682 nM
17 | RTAIGTPVY [ID17] | 57 nM
18 | RTAPNEIAF [ID24] | 4 nM
19 | TTMPSGFELY [ID43] | 576 nM

Each sequence was assayed against T2, SLA-2*04:01 (assay: pSLA binding affinity, modified ELISA). Conditions: ELISA as above, only one successful affinity measurement, read-out: Aff. (nM), measured affinity (equilibrium dissociation constant).
Design: species or system swine
Experimental: as §1, §2, §4

Row | Sequence | Kd
20 | ATQEWLSRMW [ID31] | 50000 nM
21 | KIFRFGSHKW [ID22] | 9 nM
22 | LSDSGRISY [ID19] | 4180 nM
23 | QVYERGCRWY [ID7] | 209 nM
24 | RTAIGTPVY [ID17] | 385 nM
25 | SSEGHLTSVY [ID34] | 1690 nM
26 | TTMPSGFELY [ID43] | 1840 nM

Same assay, conditions: ELISA, 1–2 nM heavy chain, 15 nM hβ2m, peptide 0 to 13 μM, two nights at RT, average of successful measurements, read-out: Aff. (nM), measured affinity (average equilibrium dissociation constant)

Row | Sequence | Kd
27 | ASYVWVPLTW [ID20] | 17100 nM
28 | FTWYQLASY [ID13] | 2 nM
29 | FVLSWLTPW [ID28] | 3 nM
30 | GGNWFHLEW [ID8] | 16600 nM
31 | LSFSYTAQF [ID12] | 73 nM
32 | LTAALNRNRW [ID36] | 40 nM
33 | MSWRYSCTRY [ID44] | 15 nM
34 | NISAVFQTYY [ID23] | 862 nM
35 | WGVYSAIETW [ID48] | 21400 nM
36 | YAQHMVLSY [ID2] | 60 nM
